Data from PubChem BioAssay AID1918943 (Molecular Pharmacology Branch, DTP, NCI, 2023).

System: 855422-203-R-J1-PDC complex spheroid viability
Assay: Anticancer human tumor 855422-203-R-J1-PDC patient-derived bladder carcinoma cell line growth inhibition
Details: for IC50: curve of first compound; for viability, T/C: stronger effect = lower value
How it was run: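 Drug combinations with the LSD1 inhibitor iadademstat tested on tumor cells co-cultured as spheroids with endothelial cells and mesenchymal stem cells. Concentrations descended in half-log increments from clinical Cmax or 10 microM.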

[1] = second compound 0.1 µM, first compound 0.0316 µM
[2] = second compound 0.1 µM, first compound 0.1 µM
[3] = second compound 0.1 µM, first compound 0.316 µM
[4] = second compound 0.1 µM, first compound 1 µM
[5] = second compound 0.316 µM, first compound 0.0316 µM
[6] = second compound 0.316 µM, first compound 0.1 µM
[7] = second compound 0.316 µM, first compound 0.316 µM
[8] = second compound 0.316 µM, first compound 1 µM
[9] = second compound 1 µM, first compound 0.0316 µM
[10] = second compound 1 µM, first compound 0.1 µM
[11] = second compound 1 µM, first compound 0.316 µM
[12] = second compound 1 µM, first compound 1 µM
[13] = second compound 3.16 µM, first compound 0.0316 µM
[14] = second compound 3.16 µM, first compound 0.1 µM
[15] = second compound 3.16 µM, first compound 0.316 µM
[16] = second compound 3.16 µM, first compound 1 µM
[17] = second compound 10 µM, first compound 0.0316 µM
[18] = second compound 10 µM, first compound 0.1 µM
[19] = second compound 10 µM, first compound 0.316 µM
[20] = second compound 10 µM, first compound 1 µM
[21] = second compound 0.1 µM, first compound 0.00949 µM
[22] = second compound 0.1 µM, first compound 0.03 µM
[23] = second compound 0.1 µM, first compound 0.0949 µM
[24] = second compound 0.1 µM, first compound 0.3 µM
[25] = second compound 0.316 µM, first compound 0.00949 µM
[26] = second compound 0.316 µM, first compound 0.03 µM
[27] = second compound 0.316 µM, first compound 0.0949 µM
[28] = second compound 0.316 µM, first compound 0.3 µM
[29] = second compound 1 µM, first compound 0.00949 µM
[30] = second compound 1 µM, first compound 0.03 µM
[31] = second compound 1 µM, first compound 0.0949 µM
[32] = second compound 1 µM, first compound 0.3 µM
[33] = second compound 3.16 µM, first compound 0.00949 µM
[34] = second compound 3.16 µM, first compound 0.03 µM
[35] = second compound 3.16 µM, first compound 0.0949 µM
[36] = second compound 3.16 µM, first compound 0.3 µM
[37] = second compound 10 µM, first compound 0.00949 µM
[38] = second compound 10 µM, first compound 0.03 µM
[39] = second compound 10 µM, first compound 0.0949 µM
[40] = second compound 10 µM, first compound 0.3 µM
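Also: drug exposure lasted 7 days starting on day 3 after seeding.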
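For viability, T/C in this document: luminescence viability as percent of DMSO vehicle wells = 100%.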

`CC1COCCN1c1cc(C2(S(C)(=N)=O)CC2)nc(-c2ccnc3[nH]ccc23)n1` (stereo not given) + NC1CC1c1ccc(-c2cccc(O)c2)cc1 showed an IC50 (second compound 0.1 µM) of 2.74 µM, an IC50 (second compound 0.316 µM) of 2.63 µM and an IC50 (second compound 1 µM) of 2.49 µM. The IC50 (second compound 3.16 µM) was 2.29 µM, the IC50 (second compound 10 µM) was 2.11 µM and the viability, T/C [1] was 93.1%. For the same compound, the viability, T/C [2] was 93.2%, the viability, T/C [3] was 94.2% and the viability, T/C [4] was 74.6%. It also gave a viability, T/C (second compound 0.1 µM, first compound 3.16 µM) of 47.2%, a viability, T/C (second compound 0.1 µM, first compound 10 µM) of 39.7% and a viability, T/C [5] of 102%. The viability, T/C [6] was 91.2%, the viability, T/C [7] was 97.2% and the viability, T/C [8] was 79.9%. It also gave a viability, T/C (second compound 0.316 µM, first compound 3.16 µM) of 44.4%, a viability, T/C (second compound 0.316 µM, first compound 10 µM) of 43.5% and a viability, T/C [9] of 87.9%. The viability, T/C [10] was 84.4%, the viability, T/C [11] was 93.4% and the viability, T/C [12] was 75%. It also gave a viability, T/C (second compound 1 µM, first compound 3.16 µM) of 44.1%, a viability, T/C (second compound 1 µM, first compound 10 µM) of 40.5% and a viability, T/C [13] of 88.4%. The viability, T/C [14] was 93.4%, the viability, T/C [15] was 97.1% and the viability, T/C [16] was 77.2%. For the same compound, the viability, T/C (second compound 3.16 µM, first compound 3.16 µM) was 39.7%, the viability, T/C (second compound 3.16 µM, first compound 10 µM) was 38.9% and the viability, T/C [17] was 104%. It also gave a viability, T/C [18] of 87.2%, a viability, T/C [19] of 101% and a viability, T/C [20] of 75.5%. The viability, T/C (second compound 10 µM, first compound 3.16 µM) was 34.5% and the viability, T/C (second compound 10 µM, first compound 10 µM) was 37.7%.

`CCN(c1cc(-c2ccc(CN3CCOCC3)cc2)cc(C(=O)NCc2c(C)cc(C)[nH]c2=O)c1C)C1CCOCC1` + NC1CC1c1ccc(-c2cccc(O)c2)cc1 was tested, and the IC50 (second compound 0.1 µM) was > 3 µM, the IC50 (second compound 0.316 µM) was > 3 µM and the IC50 (second compound 1 µM) was > 3 µM. The IC50 (second compound 3.16 µM) was > 3 µM, the IC50 (second compound 10 µM) was > 3 µM and the viability, T/C [21] was 90.2%. The viability, T/C [22] was 96.8%, the viability, T/C [23] was 99% and the viability, T/C [24] was 98%. For the same compound, the viability, T/C (second compound 0.1 µM, first compound 0.949 µM) was 89%, the viability, T/C (second compound 0.1 µM, first compound 3 µM) was 84.9% and the viability, T/C [25] was 89%. It also gave a viability, T/C [26] of 96.8%, a viability, T/C [27] of 96.5% and a viability, T/C [28] of 105%. For the same compound, the viability, T/C (second compound 0.316 µM, first compound 0.949 µM) was 93%, the viability, T/C (second compound 0.316 µM, first compound 3 µM) was 99.2% and the viability, T/C [29] was 91.4%. The viability, T/C [30] was 89.3%, the viability, T/C [31] was 97.7% and the viability, T/C [32] was 88.7%. It also gave a viability, T/C (second compound 1 µM, first compound 0.949 µM) of 87.7%, a viability, T/C (second compound 1 µM, first compound 3 µM) of 86.4% and a viability, T/C [33] of 102%. It also gave a viability, T/C [34] of 94%, a viability, T/C [35] of 91.6% and a viability, T/C [36] of 103%. The viability, T/C (second compound 3.16 µM, first compound 0.949 µM) was 95.1%, the viability, T/C (second compound 3.16 µM, first compound 3 µM) was 97.7% and the viability, T/C [37] was 99.9%. For the same compound, the viability, T/C [38] was 101%, the viability, T/C [39] was 91.4% and the viability, T/C [40] was 94.7%. It also gave a viability, T/C (second compound 10 µM, first compound 0.949 µM) of 97.8% and a viability, T/C (second compound 10 µM, first compound 3 µM) of 92.6%.

In the case of `Nc1ncn(C2CC(O)C(CO)S2)c(=O)n1` (stereo not given) + NC1CC1c1ccc(-c2cccc(O)c2)cc1, the IC50 (second compound 0.1 µM) is reported as > 0.3 µM, the IC50 (second compound 0.316 µM) is reported as > 0.3 µM and the IC50 (second compound 1 µM) is reported as > 0.3 µM. The IC50 (second compound 3.16 µM) was > 0.3 µM, the IC50 (second compound 10 µM) was > 0.3 µM and the viability, T/C (second compound 0.1 µM, first compound 0.000949 µM) was 94.4%. The viability, T/C (second compound 0.1 µM, first compound 0.003 µM) was 95.2%, the viability, T/C [21] was 92.8% and the viability, T/C [22] was 105%. For the same compound, the viability, T/C [23] was 93.2%, the viability, T/C [24] was 83.5% and the viability, T/C (second compound 0.316 µM, first compound 0.000949 µM) was 87.7%. For the same compound, the viability, T/C (second compound 0.316 µM, first compound 0.003 µM) was 91.2%, the viability, T/C [25] was 92.3% and the viability, T/C [26] was 103%. It also gave a viability, T/C [27] of 97.5%, a viability, T/C [28] of 77.9% and a viability, T/C (second compound 1 µM, first compound 0.000949 µM) of 87.3%. It also gave a viability, T/C (second compound 1 µM, first compound 0.003 µM) of 88.6%, a viability, T/C [29] of 93.5% and a viability, T/C [30] of 99.2%. It also gave a viability, T/C [31] of 95.4%, a viability, T/C [32] of 73.1% and a viability, T/C (second compound 3.16 µM, first compound 0.000949 µM) of 81.9%. For the same compound, the viability, T/C (second compound 3.16 µM, first compound 0.003 µM) was 84.9%, the viability, T/C [33] was 91.3% and the viability, T/C [34] was 93.4%. For the same compound, the viability, T/C [35] was 93.7%, the viability, T/C [36] was 73.4% and the viability, T/C (second compound 10 µM, first compound 0.000949 µM) was 85.9%. For the same compound, the viability, T/C (second compound 10 µM, first compound 0.003 µM) was 83.3%, the viability, T/C [37] was 85.6% and the viability, T/C [38] was 94.3%. The viability, T/C [39] was 84.4% and the viability, T/C [40] was 68.8%.

For `O=C(C=Cn1cnc(-c2cc(C(F)(F)F)cc(C(F)(F)F)c2)n1)NNc1cnccn1` + NC1CC1c1ccc(-c2cccc(O)c2)cc1, the IC50 (second compound 0.1 µM) was 0.0278 µM, the IC50 (second compound 0.316 µM) was 0.0253 µM and the IC50 (second compound 1 µM) was 0.0239 µM. For the same compound, the IC50 (second compound 3.16 µM) was 0.0214 µM, the IC50 (second compound 10 µM) was 0.0232 µM and the viability, T/C (second compound 0.1 µM, first compound 0.00316 µM) was 133%. For the same compound, the viability, T/C (second compound 0.1 µM, first compound 0.01 µM) was 75.4%, the viability, T/C [1] was 44.4% and the viability, T/C [2] was 35.1%. For the same compound, the viability, T/C [3] was 27.6%, the viability, T/C [4] was 16.2% and the viability, T/C (second compound 0.316 µM, first compound 0.00316 µM) was 121%. For the same compound, the viability, T/C (second compound 0.316 µM, first compound 0.01 µM) was 75%, the viability, T/C [5] was 40.5% and the viability, T/C [6] was 32.6%. The viability, T/C [7] was 28.2%, the viability, T/C [8] was 17.7% and the viability, T/C (second compound 1 µM, first compound 0.00316 µM) was 121%. For the same compound, the viability, T/C (second compound 1 µM, first compound 0.01 µM) was 71.1%, the viability, T/C [9] was 38.9% and the viability, T/C [10] was 34.8%. It also gave a viability, T/C [11] of 29.3%, a viability, T/C [12] of 16.8% and a viability, T/C (second compound 3.16 µM, first compound 0.00316 µM) of 112%. For the same compound, the viability, T/C (second compound 3.16 µM, first compound 0.01 µM) was 68.3%, the viability, T/C [13] was 36.8% and the viability, T/C [14] was 33.5%. For the same compound, the viability, T/C [15] was 26.6%, the viability, T/C [16] was 18.9% and the viability, T/C (second compound 10 µM, first compound 0.00316 µM) was 97.8%. The viability, T/C (second compound 10 µM, first compound 0.01 µM) was 70.3%, the viability, T/C [17] was 39.7% and the viability, T/C [18] was 33.3%. The viability, T/C [19] was 31% and the viability, T/C [20] was 20.1%.
